Experimental data as given in PubChem BioAssay (NCI).
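Briefly, cells in 96-well plates were exposed to five compound concentrations for 48 h, and endpoints were estimated by linear interpolation. Abbreviation: GI50, concentration required for 50% inhibition of growth. The concentration for full growth arrest is given as TGI.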

Assays:
Assay in all cases: NCI anticancer screen, dose series, 48 h
[1] = system: NCI-H522 lung
[2] = system: HOP-92 NSCLC
[3] = system: IGROV1 ovarian
[4] = system: U251 CNS
[5] = system: DU-145 prostate
[6] = system: PC-3 prostate
[7] = system: SF-295 CNS
[8] = system: SF-539 CNS
[9] = system: SK-MEL-28 melanoma
[10] = system: SK-OV-3 ovarian

## CCN1C(=O)N(c2c(F)c(OC)cc(OC)c2F)Cc2cnc3[nH]c(CN4CCOCC4)cc3c21
[1]
  GI50: 3.12 µM
  TGI: > 100 µM
[2]
  GI50: 2.06 µM
  TGI: > 100 µM
[3]
  GI50: 1.44 µM
  TGI: > 100 µM
[4]
  GI50: 2.75 µM
  TGI: > 100 µM
[5]
  GI50: 1.99 µM
  TGI: > 100 µM
[6]
  GI50: 4.34 µM
  TGI: > 100 µM
[7]
  GI50: 3.83 µM
  TGI: > 100 µM
[8]
  GI50: 1.01 µM
  TGI: 13.7 µM
[9]
  GI50: 8.06 µM
  TGI: > 100 µM

## O=C(Nc1ccccc1Cl)c1ccc(NC2=C(Cl)C(=O)N(Cc3ccccc3)C2=O)cc1
[1]
  GI50: 17.9 µM
  TGI: 38.8 µM
[3]
  GI50: 46.4 µM
  TGI: > 100 µM
[4]
  GI50: 38.4 µM
  TGI: > 100 µM
[10]
  GI50: > 100 µM
  TGI: > 100 µM
[5]
  GI50: > 100 µM
  TGI: > 100 µM
[6]
  GI50: 40 µM
  TGI: > 100 µM
[7]
  GI50: 26.6 µM
  TGI: > 100 µM
[8]
  GI50: 45.6 µM
  TGI: > 100 µM
[9]
  GI50: 43 µM
  TGI: > 100 µM

## Cc1ccc(S(=O)(=O)N2CCCCC2CCO)cc1 (configuration not stated)
[1]
  TGI: > 100 µM
[2]
  TGI: > 100 µM
[3]
  TGI: > 100 µM
[4]
  TGI: > 100 µM
[10]
  TGI: > 100 µM
[7]
  TGI: > 100 µM
[8]
  TGI: > 100 µM

## O=C1C(c2ccccc2)=C(c2ccccc2)C(c2ccccc2)/C1=C1\C(=O)C(c2ccccc2)=C(c2ccccc2)C1c1ccccc1 (configuration not stated)
[1]
  TGI: > 100 µM
[2]
  TGI: > 100 µM
[3]
  TGI: > 100 µM
[4]
  TGI: > 100 µM
[10]
  TGI: > 100 µM
[7]
  TGI: > 100 µM
[8]
  TGI: > 100 µM
[9]
  TGI: > 100 µM

## O=S1(=O)CSc2ccc3ccccc3c2-c2c1ccc1ccccc21
[1]
  TGI: > 100 µM
[2]
  TGI: > 100 µM
[3]
  TGI: > 100 µM
[4]
  TGI: > 100 µM
[7]
  TGI: > 100 µM
[8]
  TGI: > 100 µM
[9]
  TGI: > 100 µM

## CN(C)/[N+]([O-])=N/Oc1cc(Nc2ccc(C(=O)O)cc2)c([N+](=O)[O-])cc1[N+](=O)[O-]
[1]
  GI50: 28.5 µM
  TGI: > 100 µM
[3]
  GI50: 14.9 µM
  TGI: 34.4 µM
[4]
  GI50: 19.3 µM
  TGI: 33.5 µM
[5]
  GI50: 18 µM
  TGI: 35.7 µM
[6]
  GI50: 26.5 µM
  TGI: 53.1 µM
[7]
  GI50: 16.9 µM
  TGI: 34 µM
[8]
  GI50: 23.5 µM
  TGI: 53.6 µM
[9]
  GI50: 30.7 µM
  TGI: 57.5 µM

## O=C(CC1C(=O)Nc2ccccc2S1=O)Nc1cccc(Cl)c1 (configuration not stated)
[2]
  TGI: 53.8 µM
[3]
  TGI: > 67.1 µM
[4]
  TGI: > 100 µM
[10]
  TGI: > 100 µM
[5]
  TGI: > 100 µM
[7]
  TGI: > 100 µM
[8]
  TGI: 43.7 µM
[9]
  TGI: > 100 µM

## Cc1cccc(C)c1NC(=O)C(=O)C1C(=O)N(c2ccccc2)N=C1N (configuration not stated)
[1]
  TGI: > 100 µM
[2]
  TGI: > 100 µM
[3]
  TGI: > 100 µM
[4]
  TGI: > 100 µM
[10]
  TGI: > 100 µM
[7]
  TGI: > 100 µM
[8]
  TGI: > 100 µM
[9]
  TGI: > 100 µM

## CC(C)(C)c1ccccc1NS(=O)(=O)c1ccccc1
[3]
  TGI: > 100 µM
[4]
  TGI: > 100 µM
[10]
  TGI: > 100 µM
[7]
  TGI: > 100 µM
[8]
  TGI: > 100 µM
[9]
  TGI: > 100 µM

## C=C1C(=O)O[C@H]2[C@H]1CC/C(Cn1cc(CCC)nn1)=C\CC[C@@]1(C)O[C@@H]21
[1]
  GI50: 3.06 µM
  TGI: 10.7 µM
[2]
  GI50: 2.95 µM
  TGI: 7.13 µM
[3]
  GI50: 4.63 µM
  TGI: 20.2 µM
[4]
  GI50: 14.1 µM
  TGI: 27.7 µM
[10]
  GI50: 26 µM
  TGI: 68.5 µM
[5]
  GI50: 4.32 µM
  TGI: 16 µM
[6]
  GI50: 14.9 µM
  TGI: 29.4 µM
[7]
  GI50: 18.5 µM
  TGI: 39.2 µM
[8]
  GI50: 8.87 µM
  TGI: 22.5 µM

## O=c1c2ccccc2nc(-c2ccc(Cl)cc2)n1O
[1]
  TGI: 57 µM
[2]
  TGI: 88.8 µM
[3]
  TGI: 9.61 µM
[4]
  TGI: > 100 µM
[10]
  TGI: > 100 µM
[5]
  TGI: > 100 µM
[6]
  TGI: > 100 µM
[7]
  TGI: 94.1 µM
[8]
  TGI: 64.7 µM

## Cc1ccc(/C=C2\CCOC2=O)cc1
[2]
  GI50: > 100 µM
  TGI: > 100 µM
[3]
  GI50: 82.5 µM
  TGI: > 100 µM
[4]
  GI50: > 100 µM
  TGI: > 100 µM
[10]
  GI50: > 100 µM
  TGI: > 100 µM
[5]
  GI50: > 100 µM
  TGI: > 100 µM
[6]
  GI50: > 100 µM
  TGI: > 100 µM
[8]
  GI50: > 100 µM
  TGI: > 100 µM
[9]
  GI50: > 100 µM
  TGI: > 100 µM

## COc1ccccc1NC(=O)C1=C(C)NC(C)=C(C(=O)Nc2ccccc2OC)C1c1ccc(C(C)C)cc1
[2]
  TGI: > 100 µM
[3]
  TGI: > 100 µM
[4]
  TGI: > 100 µM
[10]
  TGI: > 100 µM
[7]
  TGI: > 100 µM
[8]
  TGI: > 100 µM
[9]
  TGI: > 100 µM

## CCCCCCCCSC1=CC(=O)C(OC)=C(OC)C1=O
[1]
  GI50: 0.326 µM
  TGI: 1.49 µM
[3]
  GI50: 5.66 µM
  TGI: 23.4 µM
[4]
  GI50: 2.8 µM
  TGI: 11.7 µM
[10]
  GI50: 17.6 µM
  TGI: 36.4 µM
[5]
  GI50: 7.23 µM
  TGI: 20.5 µM
[6]
  GI50: 6.24 µM
  TGI: 23.3 µM
[7]
  GI50: 6.75 µM
  TGI: 31.4 µM
[8]
  GI50: 2.54 µM
  TGI: 5.9 µM
[9]
  GI50: 6.7 µM
  TGI: 20.3 µM

## CO/N=C1/c2cc(OC)ccc2-c2c(NOC)nc3ccccc3c21
[1]
  GI50: 26.6 µM
  TGI: > 100 µM
[2]
  GI50: 16 µM
  TGI: 46.2 µM
[3]
  GI50: 18 µM
  TGI: 44.2 µM
[4]
  GI50: 13 µM
  TGI: 25.7 µM
[5]
  GI50: 29.2 µM
  TGI: > 100 µM
[6]
  GI50: 21.3 µM
  TGI: 88.2 µM
[7]
  GI50: 32.8 µM
  TGI: > 100 µM
[8]
  GI50: 21.9 µM
  TGI: 52.6 µM
[9]
  GI50: 85.2 µM
  TGI: > 100 µM

## O=C(OCCOCCOC(=O)c1c[nH]cc1-c1ccccc1)c1c[nH]cc1-c1ccccc1
[1]
  TGI: 29.6 µM
[2]
  TGI: 47.8 µM
[3]
  TGI: 42.5 µM
[4]
  TGI: 36.7 µM
[10]
  TGI: 84.4 µM
[7]
  TGI: 35.7 µM
[8]
  TGI: 32.5 µM

## N#Cc1c2ccccc2c2nnc3cc(Cl)c(Cl)cc3n12
[1]
  GI50: 39.2 µM
  TGI: > 100 µM
[2]
  GI50: 42 µM
  TGI: > 100 µM
[3]
  GI50: 44.5 µM
  TGI: > 100 µM
[4]
  GI50: 50.7 µM
  TGI: > 100 µM
[10]
  GI50: > 100 µM
  TGI: > 100 µM
[5]
  GI50: 32.4 µM
  TGI: > 100 µM
[6]
  GI50: 30 µM
  TGI: 73.7 µM
[7]
  GI50: 93.7 µM
  TGI: > 100 µM
[8]
  GI50: 28.5 µM
  TGI: 61.8 µM
